In US9328125B2, “Bivalent AMPA receptor positive allosteric modulators” (The Board of Regents of the University of Texas System, priority 2012, dated 2016):
Read-outs that look alike come from different tables or passages of the source.

What was measured:
[1] = system: AMPA receptor; assay: Glutamate (100 μM)-evoked calcium influx in DIV9 dissociated rat forebrain neurons; type: cell-based; conditions: for EC50 / Emax (%) / pEC50 (-logEC50): Glutamate (100 μM)-evoked Ca2+ influx; for enhancement of glutamate-evoked calcium influx, in words: glutamate 100 μM, DIV9 dissociated rat forebrain neurons cultured on PND1
Description: Fluorometric readings were taken from each well every 1.7 seconds for 20 seconds before any addition to record baseline value and for 70 seconds after addition of any compound(s) to monitor the induced changes of calcium influx. Each well's peak fluorescence reading after addition of compound(s) represents effect of a certain concentration of a given compound(s) after subtracting the average baseline fluorescence. Peak fluorometric reading from duplicate or triplicate wells was averaged, and represents the effect of a certain concentration on calcium influx after subtracting control value. […] points were fitted with a sigmoidal function (bottom asymptote=100, nHill=1) by using Prism from GraphPad (San Diego, Calif.) to determine the compound's EC50 (affinity or potency). Each compound's EC50 was summarized from at least 3 individual experiments and presented as the mean±SE.

[2] = system: PCP-induced caspase-3 activity; assay: PCP-induced caspase-3 enzyme activity in organotypic cortical-striatal slices, modulation of the (±)AMPA effect; type: cell-based, rat; conditions: for IC50: Rattus norvegicus; for modulation of AMPA effect on PCP-induced caspase-3 activity, in words: AMPA 1 μM, FIG. 2A-2B
Protocol: The inventors have designed and chemically synthesized a class of new bivalent AMPAR ligands (see examples in Table 1). […] The neuroprotective effect of (±)APMA on PCP-induced caspase-3 activities was potentiated by cyclothiazide (CTZ) and aniracetam, two existing AMPAR ligands (approximate IC50 1-3 μM, FIG. 2A for CTZ).
B. Measurement of Caspase-3 Enzyme Activities
Compounds showing significant AMPAR PAM effects on glutamate-induced calcium influx in HEK293 expressing hGluA1i/3i were further tested for their ability to prevent PCP-induced caspase-3 activation in our established in vitro organotypic slice model (Wang et al., Neuropsychopharmacology 32(5): 1178-1194, 2007). Initial screening includes two steps. In step one, all candidates were tested in a single experiment to determine an appropriate approximate concentration range for its effect on PCP-induced caspase-3 activity by adding eight serial concentrations of the compound at log intervals (0, 0.0001-10 μM). Compounds showing promising ˜IC50 (<10 μM) and slope (0.8-1.20) was further screened in a paradigm in which each selected compound was tested in 3 independent experiments to determine its IC50 and slope values by adding eight serial concentrations of the compound at approximately half-log intervals. For all initial screening experiments, rat organotypic brain slice cultures were prepared as previously described (Wang et al., Neuropsychopharmacology 32(5): 1178-1194, 2007). All experiments were executed on DIV10. In each experiment, the slices were pre-treated with the solution vehicle (0.1% DMSO) or 6 serial concentrations of the new compounds for 15 min, followed with (±)APMA (1 μM) (or its vehicle, 0.1% DMSO) for another 15 min. PCP (3 μM) or its vehicle (saline) was added and incubation continued for 6 hrs. The superficial cortical layers of each treated slice were harvested with the aid of an inverted microscopy and placed into ice-cold lysis buffer. Supernatants were collected and caspase-3 activity measured as described previously (Wang et al., Neuropsychopharmacology 32(5): 1178-1194, 2007). Caspase-3 activity was measured over 60 min and calculated as the difference between the substrate degradation rate in samples containing and those not containing Z-DEVD-FMK, a selective caspase-3 inhibitor. Data are expressed as DEVDase activity (AFC pmoles/mg protein/60 min). Protein was measured by the bicinchoninic acid (BCA) technique (Smith et al., 1985), using bovine serum albumin as standards. Each activity measurement was averaged from duplicate samples. Baseline activity (saline treated) was subtracted from all treatments. The caspase-3 activity of in slices incubated with PCP alone served as a positive control. Each compound's activity was normalized to the protective effect of (±)AMPA against PCP (100%). IC50 and slope values were analyzed and determined with the SigmaPlot four-parameter equation as described previously (Petukhov et al., J Med Chem 47(12): 3009-3018, 2004). Each compound's IC50 and slope values were determined from data in at least 3 individual experiments. Group data is reported as mean±SEM.

[3] = system: PCP-induced cleaved caspase-3 immunoreactive neurons in frontal cortex (M2/1); assay: Image analysis of cleaved caspase-3 immunoreactive neurons in frontal cortex (M2/1) of PND7 rats exposed to PCP; type: in vivo, rat
Protocol: Cleaved caspase-3 immunoreactive neurons, 8 hrs on PND7 after Saline (A) or PCP (10 mg/kg, sc, B-E) without (A-B) or with (C-E) pretreatment (30 min prior to PCP) of HJC-1-22 (C, 0.1 mg/kg; D, 1 mg/kg; E, 10 mg/kg, sc) were shown.
C. Image Analysis of Cleaved Caspase-3 Immunoreactive Neurons
PCP induces developmental neuroapoptosis via caspase-3 activation in vulnerable neurons (Wang et al., Neuropsychopharmacology 32(5): 1178-1194, 2007). Caspase-3 activation in vivo can be observed by immunohistochemistry with specific antibodies against cleaved caspase-3 protein and quantified by image analysis of cleaved caspase-3 immunoreactive neurons in specific brain region(s) or sub-region(s) in developing brain. Compounds showing significant AMPAR PAM effects on glutamate-induced calcium influx in HEK293 expressing hGluA1i/3i and significant preventive effect on PCP-induced caspase-3 enzyme activities in organotypic slices were further defined their abilities to block PCP-induced apoptosis in vivo.
PND7 rat pups were used in the in vivo studies. […]
In step 1, each candidate was tested in two (n=2) individual experiments by using PND7 rat pups from 2 different liters. […] The activity percentages (%) of each dose vs. PCP were calculated to estimate its IC50 which was used to determine its in vivo effective dose range for the step 2 study. […]

[4] = system: morphine tolerance; assay: Morphine tolerance, tail-flick test; type: in vivo, mouse; conditions: 10 mg/kg
Protocol: The tail-flick test was used to determine basal nociception and morphine antinociception as described previously (Wang et al., J Neurosci 21:1779-86, 2001; Tang et al., J Pharmacol Exp Ther 317:901-909, 2006). In brief, One third of the distal portion of mouse tail was immersed into a water bath maintained at 52° C., and the latency of a quick tail-flick response was recorded. Morphine-antinociception was evaluated 30 min after a test dose of morphine (10 mg/kg s.c. unless otherwise stated) and is expressed as the percentage of maximal possible effect (MPE). MPE %=100%×(postdrug latency−predrug latency)/(cutoff−predrug latency). A 12-s cutoff time was used to prevent tissue damage (FIG. 9A and FIG. 10A).
(§1) G. Chronic Opioid Tolerance and Dependence.
(§2) To induce chronic opioid tolerance and dependence, mice were treated with morphine (10 mg/kg s.c., given at 8:00 AM and 6:00 PM) for 5 days (Herz and Teschemacher, Experientia 29:64-65, 1973). Control mice received an equal number and volume of injections with saline. Morphine tolerance and naloxone-precipitated withdrawal were evaluated. Haloperidol (0.1-1.0 mg/kg i.p. or p.o.) was given 30 min before the test dose of morphine or naloxone (FIG. 9B and FIG. 10B).

[5] = system: morphine physical dependence; assay: Morphine physical dependence, naloxone-precipitated withdrawal; type: in vivo, mice; conditions: 10 mg/kg
Protocol: as §1, §2

[6] = existing AMPAR ligands, FIG. 2A for CTZ, read-out: approximate IC50, potentiation of neuroprotective effect of (±)AMPA on PCP-induced caspase-3 activities
[7] = organotypic slices, (±)AMPA 1 μM, PCP 3 μM, read-out: IC50, modulation of (±)AMPA effect on PCP-induced caspase-3 activity

SMILES	EC50 [1] [nM]	pEC50 (-logEC50) [1]	Emax (%) [1] [%]	enhancement of glutamate-evoked calcium influx, in words [1]	modulation of AMPA effect on PCP-induced caspase-3 activity, in words ([2]; PCP 3 μM)	also measured
COc1ccc(C(=O)N2CCCC2=O)cc1 [aniracetam, reference compound]	–	–	–	–	–	IC50 [2, 6]: 1000 to 3000 nM
CC(C)S(=O)(=O)NC[C@H](C)c1ccc(-c2ccc(CCNS(C)(=O)=O)cc2)cc1 [LY451395, reference compound]	–	–	–	enhanced glutamate (100 μM)-evoked calcium influx in a concentration-dependent manner	–	–
CC(C)S(=O)(=O)NC[C@H](C)c1ccc(-n2ccc3cc(C(=O)N4CCCCC4)ccc32)cc1 [HJC-1-24, Propane-2-sulfonic acid (2-{4-[5-(piperidine-1-carbonyl)-indol-1-yl]-phenyl}-propyl)amide]	–	–	–	–	displayed more potent activity than LY451395	IC50 [2, 7]: 5 nM; fold more potent than CTZ (IC50, caspase-3 activity) ([2]; versus CTZ): at least 200 fold
CC(C)S(=O)(=O)NC[C@H](C)c1ccc(-c2ccc(CCN3CCCC3=O)cc2)cc1 [HJC0173, Propane-2-sulfonic acid (2-{4′-[2-(2-oxo-pyrrolidin-1-yl)-ethyl]-biphenyl-4-yl}-propyl)amide]	4.02	8.39	127.1	–	–	–
NS(=O)(=O)c1cc2c(cc1Cl)NC(C1CC3C=CC1C3)NS2(=O)=O (centres unmarked) [CTZ, cyclothiazide, reference compound]	–	–	–	–	concentration-dependent fashion	IC50 [2, 6]: 1000 to 3000 nM
CC(C)S(=O)(=O)NC[C@H](C)c1ccc(-c2ccnc(C(=O)N3CCCC3)c2)cc1 [HJC-1-22, Propane-2-sulfonic acid (2-{4-[2-(pyrrolidine-1-carbonyl)-pyridin-4-yl]phenyl}-propyl)-amide]	6.53	8.28	170.0	enhanced glutamate (100 μM)-evoked calcium influx in a concentration-dependent manner	displayed more potent activity than LY451395	IC50 [2, 7]: 15 nM; prevention of PCP (10 mg/kg)-induced caspase-3 activation in frontal cortex ([3]; 10 mg/kg sc, 30 min prior to PCP (10 mg/kg, sc)): 85%; effect on PCP-induced cleaved caspase-3 immunoreactive neurons in frontal cortex (M2/1), in words ([3]; 0.1, 1, 10 mg/kg sc, 30 min prior to PCP, 8 hrs): significantly reduced PCP-induced cleaved caspase-3 immunoreactive neurons; reversal of established morphine tolerance ([4]; FIG. 9A): reversed established morphine tolerance; prevention of development of morphine tolerance ([4]; FIG. 10A): prevented the development of morphine tolerance; reversal of morphine physical dependence ([5]; FIG. 9B): partially reversed physical dependence; prevention of morphine physical dependence ([5]; FIG. 10B): partially prevented physical dependence

More lines, main results first:

EC50 [1] [nM]	pEC50 (-logEC50) [1]	SMILES	Emax (%) [1] [%]	enhancement of glutamate-evoked calcium influx, in words [1]	modulation of AMPA effect on PCP-induced caspase-3 activity, in words ([2]; PCP 3 μM)	also measured
0.06	10.21	CC(C)S(=O)(=O)NC[C@H](C)c1ccc(-n2ccc3cc(C(=O)N4CCCC4)ccc32)cc1 [HJC0210, Propane-2-sulfonic acid (2-{4-[5-(pyrrolidine-1-carbonyl)-indol-1-yl]-phenyl}-propyl)amide]	157.5	enhanced glutamate (100 μM)-evoked calcium influx in a concentration-dependent manner	–	–
8.76	8.06	CC(C)S(=O)(=O)NC[C@H](C)c1ccc(-n2ccc3ncccc32)cc1 [HJC0229, Propane-2-sulfonic acid [2-(4-pyrrolo[3,2-b]pyridin-1-yl-phenyl)-propyl]amide]	168.9	–	–	–
